Type in all cases: protein assay
In experiment [1] the target is T1, Phosphodiesterase 4 (Homo sapiens, UniProt P27815+Q08499+Q07343+Q08493). In words: Selectivity for rolipram binding site over phosphodiesterase 4.
Experiment [2] addresses T1, Phosphodiesterase 4. The experiment in a line: Affinity for rolipram binding site (RBS) of human neutrophil phosphodiesterase type IV (PDE4).
For experiment [3], the target named is T1, Phosphodiesterase 4. The experiment in a line: Inhibition of human neutrophil phosphodiesterase type IV (PDE4).
The target of experiment [4] is T1, Phosphodiesterase 4. The experiment in a line: Inhibition of human phosphodiesterase type IV (PDE4) at 10e-7 M.
The target of experiment [5] is T1, Phosphodiesterase 4. The experiment in a line: Inhibition of rolipram binding to phosphodiesterase type IV (PDE4).
Experiment [6] has as its target T1, Phosphodiesterase 4. The experiment in a line: Inhibition of rolipram binding to phosphodiesterase type IV (PDE4) at 10e-7 M.
Experiment [7] deals with T1, Phosphodiesterase 4. The experiment in a line: Inhibition of rolipram binding to phosphodiesterase type IV (PDE4) at 10e-6 M.

Molecules are shown by their SMILES.

The text below walks through data of ChEMBL document CHEMBL1135093, “Phthalazine PDE4 inhibitors. Part 3: the synthesis and in vitro evaluation of derivatives with a hydrogen bond acceptor” (Bioorg Med Chem Lett, 2002).

One may read the Ki as a dissociation constant, usually derived from enzyme kinetics or from competition with a known ligand. One may read the IC50 as the concentration that gives 50% inhibition. Higher therefore signals lower potency. In the case of `COc1ccc2c(c1)CN(S(C)(=O)=O)N=C2Cc1c(Cl)cncc1Cl`, the Ratio on Phosphodiesterase 4 [1] is 2.9. At Phosphodiesterase 4 [2], this compound gave a Ki of 60 nM. This compound gave an IC50 at Phosphodiesterase 4 [3] of 21 nM.

The inhibition is the drop in the measured response relative to a control, in per cent. Higher therefore signals a response far below the control. `COc1ccc2c(c1)CN(C=O)N=C2Cc1c(Cl)cncc1Cl` gave an inhibition at Phosphodiesterase 4 [4] of 45%. At Phosphodiesterase 4 [2], this compound gave a Ki of 138 nM.

On to `COc1ccc2c(c1)CN(C(=O)C(C)C)N=C2Cc1c(Cl)cncc1Cl`, for which, at Phosphodiesterase 4 [1], the Ratio is 19.9. At Phosphodiesterase 4 [2], this compound returned a Ki of 498 nM. At Phosphodiesterase 4 [3], the IC50 is recorded as 25 nM.

With `COC(=O)N1Cc2cc(OC)ccc2C(Cc2c(Cl)cncc2Cl)=N1`, on Phosphodiesterase 4 [1], the Ratio came out at 2.8. Besides, the Ki on Phosphodiesterase 4 [2] was determined as 199 nM. Moreover, the IC50 at Phosphodiesterase 4 [3] is 72 nM.

With `COc1ccc2c(c1)CN(C(=O)NO)N=C2Cc1c(Cl)cncc1Cl`, the Ratio on Phosphodiesterase 4 [1] is 2.4. In addition, the Ki at Phosphodiesterase 4 [2] was 208 nM. The same compound yielded an IC50 against Phosphodiesterase 4 [3] of 85 nM.

With `COc1ccc2c(Cc3c(Cl)cncc3Cl)nncc2c1`, at Phosphodiesterase 4 [4], the inhibition turned out to be 0%. Also, the Binding at Phosphodiesterase 4 [5] turned out to be 42%.

As to `COc1ccc2c(c1OC1CCCC1)CN(C(C)=O)N=C2Cc1c(Cl)cncc1Cl`, the Ratio on Phosphodiesterase 4 [1] was 4.3. The compound also registered a Ki at Phosphodiesterase 4 [2] of 128 nM. Also, at Phosphodiesterase 4 [3], the IC50 is reported as 30 nM.

Take `COc1ccc2c(c1)CN(C(=O)Cc1ccccc1)N=C2Cc1c(Cl)cncc1Cl`: the Ratio on Phosphodiesterase 4 [1] is above 20. Further, the Binding on Phosphodiesterase 4 [6] turned out to be 36%. On Phosphodiesterase 4 [3], the IC50 worked out at 12 nM.

Take `CNC(=O)N1Cc2cc(OC)ccc2C(Cc2c(Cl)cncc2Cl)=N1`: at Phosphodiesterase 4 [1], the Ratio stood at 1.8. At Phosphodiesterase 4 [2], the Ki is 235 nM. The compound further showed an IC50 at Phosphodiesterase 4 [3] of 131 nM.

Take `CCOC(=O)C(=O)N1Cc2cc(OC)ccc2C(Cc2c(Cl)cncc2Cl)=N1`: the Ratio on Phosphodiesterase 4 [1] is 1.9. Also, on Phosphodiesterase 4 [2], the Ki was 212 nM. Further, the half-maximal inhibitory concentration (IC50) on Phosphodiesterase 4 [3] was found to be 113 nM.

Consider `COc1ccc2c(c1)CN(C(C)=O)N=C2Cc1c(Cl)cncc1Cl`, for which the Ratio on Phosphodiesterase 4 [1] worked out at 7.8. At Phosphodiesterase 4 [2], the Ki is given as 397 nM. Further, the IC50 at Phosphodiesterase 4 [3] worked out at 51 nM.

Regarding `COc1ccc2c(Cc3c(Cl)cncc3Cl)nncc2c1OC1CCCC1`, at Phosphodiesterase 4 [1], the Ratio came out at 2.8.

With `COc1ccc2c(c1)CN(C(N)=O)N=C2Cc1c(Cl)cncc1Cl`, the Ratio at Phosphodiesterase 4 [1] stood at 1.7. For the same compound, the Ki at Phosphodiesterase 4 [2] is given as 63 nM. The IC50 at Phosphodiesterase 4 [3] is reported as 36 nM.

Turning to `COc1ccc2c(c1OC1CCCC1)CN(S(C)(=O)=O)N=C2Cc1c(Cl)cncc1Cl`, the Ratio at Phosphodiesterase 4 [1] is 2.5. Further, on Phosphodiesterase 4 [2], the Ki amounted to 5 nM. For the same compound, at Phosphodiesterase 4 [3], the IC50 was found to be 2 nM.

`COc1ccc2c(c1)CN(C(=O)N(C)C)N=C2Cc1c(Cl)cncc1Cl`: the inhibition on Phosphodiesterase 4 [4] stood at 35%. For the same compound, the Ki on Phosphodiesterase 4 [2] is recorded as 473 nM.

`COc1ccc2c(c1)CNN=C2Cc1c(Cl)cncc1Cl` returned an inhibition against Phosphodiesterase 4 [4] of 14%. For the same compound, on Phosphodiesterase 4 [7], the Binding worked out at 13%.

`COc1ccc2c(c1)CN(C(=O)c1ccccc1)N=C2Cc1c(Cl)cncc1Cl`: at Phosphodiesterase 4 [1], the Ratio was above 20. Further, at Phosphodiesterase 4 [6], the Binding stood at 17%. On Phosphodiesterase 4 [3], this compound returned an IC50 of 30 nM.

For the compound `CCC(=O)N1Cc2cc(OC)ccc2C(Cc2c(Cl)cncc2Cl)=N1`, the Ratio on Phosphodiesterase 4 [1] was determined as 8.5. For the same compound, the Ki on Phosphodiesterase 4 [2] turned out to be 237 nM. At Phosphodiesterase 4 [3], this compound displayed an IC50 of 28 nM.
